Data reported in patent publication US3939268A, “2,4-Diamino substituted pyridol(3,2-d)pyrimidine as antithrombotic agents” (Boehringer Ingelheim GmbH, priority 1971, dated 1976).
Where a name gives a salt, the structure may show the parent alone.

Columns and labels:
[1] = test system: thrombocyte aggregation / platelet stickiness (human blood); assay: retention test according to Morris (reduction in platelet stickiness, glass beads); format: cell-based; conditions: 5×10^-5 mol/liter, 10 minutes at 37°C, average of 4 - 6 determinations; for inhibition at 50 µM: Platelet, 10 min
Procedure: The inhibiting effect upon the platelet stickiness was determined by means of the so-called retention test according to Morris [see E. Deutsch et al, 1.Internationales Symposium uber Stoffwechsel and Membranpermeabilitat von Erythrocyten and Thrombocyten, Vienna, Austria (1969); Georg Thieme Verlag, Stuttgart, Germany]. […] To determine the inhibiting action of the test compound upon thrombocyte aggregation, 1 ml of human blood is pipetted into small test tubes, and the test compound is added to a final concentration of 5×10^^-5 mol/liter. The tubes are incubated for 10 minutes at 37°C. 1 gm of glass beads (glass beads for gas-chromatography) is added to half of the tubes. Finally the closed tubes are attached to a vertical wheel and rotated for 1 minute. By this means good contact is obtained between the glass beads and the blood. The tubes are then allowed to stand at room temperature for another hour, after which time a satisfactory sedimentation of erythrocytes has taken place. 0.01 ml of the supernatant plasma is removed, diluted to 1 : 8,000 with celloscope solution, and the platelet count is read in the celloscope. The percent reduction in the stickiness due to the presence of the substance (compared to tubes without glass beads) is measured and the average of 4 - 6 determinations is taken.

[2] = test system: bleeding time; assay: prolongation of the bleeding time (method of Duke); format: in vivo; conditions: non-anesthetized mice, 10 mgm/kg per os, after one hour, compared to untreated animals; for change in vivo at 10 mg/kg: Mus musculus, po, 1 h
Excerpt: The prolonging effect upon the bleeding time was ascertained by the method of Duke, J. Amer. Med. Assoc. 15, 1185 (1910). 2. To determine the bleeding time, 10 mgm/kg of the test compound is given per os to non-anesthetized mice. After one hour, about 0.5 mm is cut off from the tail of each animal. The exuded blood is soaked up with filter paper every 30 seconds. The number of drops of blood so obtained is used as a measure for the bleeding time compared to untreated animals (5 animals/test).

[3] = acute toxicity (LD50); conditions: mouse, in vivo, po, mice, observation time 14 days; for mortality at 336 h: p.o., printed with LD50 >250 mg/kg, read-out: animals died
Procedure: 3. The acute toxicity of some of the compounds for orientation (observationtime : 14 days) was determined on mice, or the LD50 was calculated from the percentage of animals which died after different doses within the observation time [see J. Pharmacol. exper. Therap. 96, 99(1949)].

[4] = test system: anesthetized cats and dogs; assay: hypotensive tests (method of Eckenhoff); format: in vivo; conditions: in words, warm-blooded animals, such as mice
Procedure: The hypotensive tests were performed on anesthetized cats and dogs by the method of Eckenhoff, Amer. J. Physiol. 148, 582 (1947).

SMILES	inhibition at 50 µM [1]	change in vivo at 10 mg/kg [2]	further results
OCCCN(CCCO)c1nc(N2CCOCC2)c2ncccc2n1 [J, 2-(dipropanol-amino)-4-morpholino-pyrido[3,2-d]pyrimidine dihydrochloride]	50%	45%	–
CN1CCN(c2nc(N3CCOCC3)c3ncccc3n2)CC1 [I, 2-(n'-methyl-piperazino)-4-morpholino-pyrido[3,2-d] pyrimidine dihydrochloride]	70%	40%	–
Cl.Cl.c1cnc2c(N3CCCCC3)nc(N3CCSCC3)nc2c1 [N, 2-thiomorpholino-4-piperidino-pyrido[3,2-d]pyrimidine dihydrochloride]	77%	98%	LD50 at 336 h [3]: > 250 mg/kg; mortality at 336 h [3]: 0%
Cl.Cl.[O-][S+]1CCN(c2nc(N3CCNCC3)nc3cccnc23)CC1 [C, 2-piperazino-4-(1'-oxido-thiomorpholino)-pyrido[3,2-d] pyrimidine dihydrochloride]	99%	–	LD50 at 336 h [3]: 872 mg/kg; hypotensive activity [4]: particularly pronounced
O=S1(=O)CCN(c2nc(N3CCNCC3)nc3cccnc23)CC1 [M, 2-piperazino-4-(1',1'-dioxide-thiomorpholino)-pyrido[3,2-d]pyrimidine dihydrochloride]	88%	98%	LD50 at 336 h [3]: > 250 mg/kg; mortality at 336 h [3]: 0%
CN1CCN(c2nc(N3CC[S+]([O-])CC3)c3ncccc3n2)CC1 [D, 2-(n'-methyl-piperazino)-4-(1'-oxido-thiomorpholino)-pyrido[3,2-d]pyrimidine dihydrochloride]	87%	88%	–
Cc1ccc2nc(N3CCNCC3)nc(N3CC[S+]([O-])CC3)c2n1 [P, 2-piperazino-4-(1'-oxido-thiomorpholino)-6-methylpyrido[3,2-d]pyrimidine d ihydrochloride]	89%	98%	–
CN1CCN(c2nc(N3CCSCC3)c3ncccc3n2)CC1 [B, 2-(n'-methyl-piperazino)-4-thiomorpholino-pyrido[3,2-d] pyrimidine dihydrochloride]	53%	118%	–
CC1CN(c2nc(N3CCNCC3)nc3cccnc23)CC[S+]1[O-] (stereo not shown) [G, 2-piperazino-4-(1'-oxido-2'-methyl-thiomorpholino)-pyrido[3,2-d]pyrimidinedihydrochloride]	96%	55%	–
Cc1ccc2nc(N3CCSCC3)nc(N3CCNCC3)c2n1 [Q, 2-thiomorpholino-4-piperazino-6-methyl-pyrido[3,2-d] pyrimidine dihydrochloride]	34%	–	–
c1cnc2c(N3CCNCC3)nc(N3CCSCC3)nc2c1 [Example 27, 2-Thiomorpholino-4-piperazino-pyrido[3,2-d]pyrimidine]	–	–	hypotensive activity [4]: particularly pronounced
c1cnc2c(N3CCOCC3)nc(N3CCNCC3)nc2c1 [H, 2-piperazino-4-morpholino-pyrido[3,2-d]pyrimidine dihydrochloride]	96%	55%	–
c1cnc2c(N3CCCCC3)nc(N3CCNCC3)nc2c1 [K, 2-piperazino-4-piperidino-pyrido[3,2-d]pyrimidine dihydrochloride]	39%	138%	–
Cl.[O-][S+]1CCN(c2nc(N(CCO)CCCCCCO)nc3cccnc23)CC1 [F, 2-(n-ethanol-hexanolamino)-4-(1'-oxido-thiomorpholino)-pyrido[3,2-d]pyrimidine hydrochloride]	–	–	Reduction in Stickiness ([1]; 50 µM): 71%; Prolongation of Bleeding Time [2]: 35%
O=C(O)/C=C\C(=O)O.c1cnc2c(N3CCSCC3)nc(N3CCNCC3)nc2c1 [A, 2-piperazino-4-thiomorpholinopyrido[3,2-d]pyrimidine maleate]	99%	171%	LD50 at 336 h [3]: 413 mg/kg
OCCCN(CCCO)c1nc(N2CCCCC2)c2ncccc2n1 [L, 2-(dipropanol-amino)-4-piperidino-pyrido[3,2-d]pyrimidine hydrochloride]	20%	103%	–
[O-][S+]1CCN(c2nc(N(CCCO)CCCO)nc3cccnc23)CC1 [E, 2-(dipropanol-amino)-4-(1'-oxido-thiomorpholino)-pyrido[3,2-d]pyrimidine hydrochloride]	88%	40%	–
[O-][S+]1CCN(c2nc(N3CCNCC3)c3ncccc3n2)CC1 [O, 2-(1'-oxido-thiomorpholino)-4-piperazino-pyrido [3,2-d]pyrimidine]	98%	35%	LD50 at 336 h [3]: > 250 mg/kg; mortality at 336 h [3]: 0%; hypotensive activity [4]: particularly pronounced
